In ChEMBL document CHEMBL5257026, “Progress and prospects on DENV protease inhibitors” (Eur J Med Chem, 2016):
Residues, ends and D or L forms follow the SMILES beside them.

Key:
[1] = Inhibition of DENV2 TSV01 NS2B-NS3 protease using BOC-GRR-AMC as substrate incubated for 30 mins by spectrofluorometeric assay; set-up: species or system dengue virus type 2
[2] = Inhibition of DENV2 NS2B-NS3 protease using Boc-Gly-Lys-Arg-AMC as substrate incubated for 30 mins by fluorescence assay; set-up: species or system dengue virus type 2
[3] = Selectivity index, ratio of CC50 for cytotoxicity against African green monkey Vero cells to EC50 for antiviral activity against DENV4 P11-08 infected in African green monkey Vero cells; assay type: toxicity, cell-based; settings: read-out: Ratio CC50/EC50
[4] = Selectivity index, ratio of CC50 for cytotoxicity against African green monkey Vero cells to EC50 for antiviral activity against DENV3 P12-08 infected in African green monkey Vero cells; assay type: toxicity, cell-based; settings: read-out: Ratio CC50/EC50
[5] = Selectivity index, ratio of CC50 for cytotoxicity against African green monkey Vero cells to EC50 for antiviral activity against DENV2 New Guinea C infected in African green monkey Vero cells; assay type: toxicity, cell-based; settings: read-out: Ratio CC50/EC50
[6] = Selectivity index, ratio of CC50 for cytotoxicity against African green monkey Vero cells to EC50 for antiviral activity against DENV1 P03-08 infected in African green monkey Vero cells; assay type: toxicity, cell-based; settings: read-out: Ratio CC50/EC50
[7] = Inhibition of DENV2 recombinant NS2B-NS3 protease expressed in Escherichia coli JM109 assessed as inhibition constant using acetyl-TTSTRR-para-nitroaniline as substrate preincubated for 10 mins followed by substrate addition measured after 120 mins by spectrophotometric analysis; set-up: species or system dengue virus type 2
[8] = Inhibition of DENV1 N-terminally hexa-His tagged NS2B (48 to 95 residues) -NS3 (1 to 184 residues) protease expressed in Escherichia coli XL1 Blue using QXL570-Phe-Ala-Ser-Gly-Lys-Arg-Ser-Gln-Ile-Gly-Leu-Lys(5-TAMRA)-NH2 as substrate and measured for 15 mins by FRET assay; set-up: species or system dengue virus type 1
[9] = Inhibition of DENV2 N-terminally hexa-His tagged NS2B (48 to 95 residues) -NS3 (1 to 184 residues) protease expressed in Escherichia coli XL1 Blue using QXL570-Phe-Ala-Ser-Gly-Lys-Arg-Ser-Gln-Ile-Gly-Leu-Lys(5-TAMRA)-NH2 as substrate and measured for 15 mins by FRET assay; set-up: species or system dengue virus type 2
[10] = Inhibition of DENV3 N-terminally hexa-His tagged NS2B (48 to 95 residues) -NS3 (1 to 184 residues) protease expressed in Escherichia coli XL1 Blue using QXL570-Phe-Ala-Ser-Gly-Lys-Arg-Ser-Gln-Ile-Gly-Leu-Lys(5-TAMRA)-NH2 as substrate and measured for 15 mins by FRET assay; set-up: species or system dengue virus type 3
[11] = Inhibition of DENV4 N-terminally hexa-His tagged NS2B (48 to 95 residues) -NS3 (1 to 184 residues) protease expressed in Escherichia coli XL1 Blue using QXL570-Phe-Ala-Ser-Gly-Lys-Arg-Ser-Gln-Ile-Gly-Leu-Lys(5-TAMRA)-NH2 as substrate and measured for 15 mins by FRET assay; set-up: species or system dengue virus type 4
[12] = Inhibition of DENV4 NS2B-NS3 protease expressed in Escherichia coli BL21 (DE3) using Bz-Nle-Lys-Arg-Arg-AMC as substrate preincubated for 30 mins followed by substrate addition by fluorescence plate reader analysis; set-up: species or system dengue virus type 4
[13] = Inhibition of DENV3 NS2B-NS3 protease expressed in Escherichia coli BL21 (DE3) using Bz-Nle-Lys-Arg-Arg-AMC as substrate preincubated for 30 mins followed by substrate addition by fluorescence plate reader analysis; set-up: species or system dengue virus type 3
[14] = Inhibition of DENV2 NS2B-NS3 protease expressed in Escherichia coli BL21 (DE3) using Bz-Nle-Lys-Arg-Arg-AMC as substrate preincubated for 30 mins followed by substrate addition by fluorescence plate reader analysis; set-up: species or system dengue virus type 2
[15] = Inhibition of DENV1 NS2B-NS3 protease expressed in Escherichia coli BL21 (DE3) using Bz-Nle-Lys-Arg-Arg-AMC as substrate preincubated for 30 mins followed by substrate addition by fluorescence plate reader analysis; set-up: species or system dengue virus type 1
[16] = Inhibition of DENV2 NS2B-NS3 protease using Bz-Nle-Lys-Arg-Arg-AMC as substrate preincubated for 15 mins followed by substrate addition by fluorescence assay; set-up: species or system dengue virus type 2
dengue virus type 2 = assay: Antiviral activity against DENV2 infected in Golden hamster BHK-21 cells assessed as reduction in viral titer incubated for 72 hrs by plaque-forming assay; assay type: functional, organism-based; settings: BHK-21, 72 h
[17] = Inhibition of DENV2 N-terminally hexa-His tagged NS2B (49 to 92 residues) -NS3 (1 to 184 residues) protease using Ac-TTSTRR-pNA as substrate preincubated for 10 mins followed by substrate addition and measured after 120 mins by HTS assay; set-up: species or system dengue virus type 2
[18] = Inhibition of DENV4 recombinant NS2B-NS3 protease expressed in Escherichia coli using Abz-RRRRSAG-nY-NH2 as substrate preincubated for 20 mins at 37 degC followed by substrate addition measured after 60 mins by fluorescence spectrophotometric analysis; set-up: species or system dengue virus type 4
[19] = Inhibition of DENV3 recombinant NS2B-NS3 protease expressed in Escherichia coli using Abz-RRRRSAG-nY-NH2 as substrate preincubated for 20 mins at 37 degC followed by substrate addition measured after 60 mins by fluorescence spectrophotometric analysis; set-up: species or system dengue virus type 3
[20] = Inhibition of DENV2 recombinant NS2B-NS3 protease expressed in Escherichia coli using Abz-RRRRSAG-nY-NH2 as substrate preincubated for 20 mins at 37 degC followed by substrate addition measured after 60 mins by fluorescence spectrophotometric analysis; set-up: species or system dengue virus type 2
[21] = Inhibition of DENV1 recombinant NS2B-NS3 protease expressed in Escherichia coli using Abz-RRRRSAG-nY-NH2 as substrate preincubated for 20 mins at 37 degC followed by substrate addition measured after 60 mins by fluorescence spectrophotometric analysis; set-up: species or system dengue virus type 1

In the case of `O=C1c2c(O)ccc([N+](=O)[O-])c2C(=O)c2c([N+](=O)[O-])ccc(O)c21`, the Ki [1] is reported as 432 µM and the Ki [2] is reported as 4.2 µM.
In the case of `Cc1ccc(S(=O)(=O)Nc2cc(SCC(=O)O)c(O)c3ccccc23)cc1[N+](=O)[O-]`, the selectivity ratio [3] is reported as 90.8, the selectivity ratio [4] is reported as 27.7 and the selectivity ratio [5] is reported as 68.6. The selectivity ratio [6] was 69.3.
With `N=C(N)Nc1ccc(O[C@H]2C[C@@H](Oc3ccc(NC(=N)N)cc3NC(=N)N)[C@H](NC(=N)N)C[C@@H]2NC(=N)N)c(NC(=N)N)c1` the Ki [7] was 15.4 µM, the IC50 [8] was 3 µM and the IC50 [9] was 5 µM. For the same compound, the IC50 [10] was 5 µM and the IC50 [11] was 11 µM.
`O=C(Nc1nc2cc(O)c(O)cc2s1)c1ccccc1Oc1ccc2cc(O)ccc2c1` showed an IC50 [12] of 2 µM, an IC50 [13] of 1.6 µM and an IC50 [14] of 2.3 µM. The IC50 [15] was 2 µM.
Compound `CCc1ccc(NS(=O)(=O)c2ccc(N3C(=O)c4ccccc4C3=O)cc2)cc1` has an IC50 [16] of 48.2 µM.
`c1ccc(-c2ccc(Nc3nnc(Nc4ccc(C5=NCCN5)cc4)c4ccccc34)cc2)cc1` gave an EC50 (dengue virus type 2) of 0.23 µM and an IC50 [17] of 22.6 µM.
In the case of `NC(=O)[C@H](Cc1c[nH]c2ccccc12)NC(=O)[C@H](CS)NC(=O)[C@H](Cc1ccc(O)cc1)NC(=O)[C@@H](N)Cc1c[nH]c2ccccc12` (H-WYCW-NH2), the Ki [18] is reported as 11.2 µM, the Ki [19] is reported as 24.4 µM and the Ki [20] is reported as 4.8 µM. It also gave a Ki [21] of 4.2 µM.
